# Measured values published in patent US10072003B2, “Tetrahydronaphthyridine derivatives as mGluR2-negative allosteric modulators, compositions, and their use” (Merck Sharp & Dohme Corp., priority 2014, dated 2018).
# Target: recombinant human mGluR2 (Homo sapiens (Human), UniProt Q14416)
# Test: FLIPR Ca2+ mobilization antagonist assay in CHO dhfr- cells expressing human mGluR2 and Gα16
# Type: cell-based
# Settings: antagonist response after addition of 2,500 nM glutamate, Fluo-4 AM, FLIPR384
# How it was run: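 CHO dhfr- cells stably co-expressing human mGluR2 and Gα16, Fluo-4 AM loaded, preincubated with compound, then challenged with 2,500 nM glutamate; Ca2+ response read by FLIPR. Maximum calcium response vs concentration fitted to four-parameter logistic for IC50.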
# Sequence of recombinant human mGluR2 (Q14416 19-872): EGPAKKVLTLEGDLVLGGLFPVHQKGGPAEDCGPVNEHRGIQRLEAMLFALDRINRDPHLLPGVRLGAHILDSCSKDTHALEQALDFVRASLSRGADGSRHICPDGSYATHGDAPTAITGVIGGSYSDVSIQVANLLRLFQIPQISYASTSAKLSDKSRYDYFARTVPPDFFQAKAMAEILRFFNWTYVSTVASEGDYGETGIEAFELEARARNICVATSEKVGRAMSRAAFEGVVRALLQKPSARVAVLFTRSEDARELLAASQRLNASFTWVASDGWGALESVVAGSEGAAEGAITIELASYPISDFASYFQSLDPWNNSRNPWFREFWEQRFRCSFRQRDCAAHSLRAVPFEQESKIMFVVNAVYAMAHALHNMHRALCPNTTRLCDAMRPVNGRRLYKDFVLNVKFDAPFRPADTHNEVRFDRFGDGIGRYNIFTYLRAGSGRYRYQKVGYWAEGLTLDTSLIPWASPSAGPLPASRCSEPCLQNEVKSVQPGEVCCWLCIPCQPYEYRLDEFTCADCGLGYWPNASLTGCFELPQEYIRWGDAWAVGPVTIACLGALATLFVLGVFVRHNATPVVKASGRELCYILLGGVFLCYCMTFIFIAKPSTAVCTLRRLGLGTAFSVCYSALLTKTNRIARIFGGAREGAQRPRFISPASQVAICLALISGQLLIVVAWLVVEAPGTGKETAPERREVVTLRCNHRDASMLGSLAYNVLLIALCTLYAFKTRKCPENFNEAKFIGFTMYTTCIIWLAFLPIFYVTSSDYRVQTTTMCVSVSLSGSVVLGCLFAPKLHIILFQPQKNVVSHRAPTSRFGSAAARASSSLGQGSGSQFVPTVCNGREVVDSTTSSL
row,Structure (SMILES),IC50
1,"Cc1cn(-c2cc(C(N)=O)nc3c2CCN(Cc2ccnc(C(F)(F)F)c2)C3)nc1C [Example 5-7, 4-(3,4-dimethyl-1H-pyrazol-1-yl)-7-{[2-(trifluoromethyl)pyridin-4-yl]methyl}-5,6,7,8-tetrahydro-1,7-naphthyridine-2-carboxamide]",42.7 nM
2,"CC(C)c1noc(CN2CCc3c(-c4ccc(Cl)cc4F)cc(C(N)=O)nc3C2)n1 [Example 9-6, 4-(4-chloro-2-fluorophenyl)-7-{[3-(1-methylethyl)-1,2,4-oxadiazol-5-yl]methyl}-5,6,7,8-tetrahydro-1,7-naphthyridine-2-carboxamide]",8 nM
3,"CC1(C)CC(O)(CN2CCc3c(-c4ccc(F)cc4F)cc(C(N)=O)nc3C2)CCO1 (single isomer, unassigned) [Example 14-2B]",27.1 nM
4,"CC1(C)CC(F)(CN2CCc3c(-c4ccc(F)cc4F)cc(C(N)=O)nc3C2)CO1 (single isomer, unassigned) [Example 14-1B]",17.8 nM
5,"CC1(C)CC(CN2CCc3c(-c4ccc(F)cc4F)cc(C(N)=O)nc3C2(C)C)CCO1 (racemic) [Example 1-23A, (R) and (S)-4-(2,4-difluorophenyl)-7-((2,2-dimethyltetrahydro-2H-pyran-4-yl)methyl)-8,8-dimethyl-5,6,7,8-tetrahydro-1,7-naphthyridine-2-carboxamide]",14.7 nM
6,"CC(C)(C)[C@@H]1C[C@H](CN2CCc3c(-c4ccc(F)cc4)cc(C(N)=O)nc3C2)CCO1 [Example 1-3A, 7-(((2S,4R)-2-(tert-butyl)tetrahydro-2H-pyran-4-yl)methyl)-4-(4-fluorophenyl)-5,6,7,8-tetrahydro-1,7-naphthyridine-2-carboxamide]",132 nM
7,"N#Cc1cnn(-c2cc(C(N)=O)nc3c2CCN(Cc2ccnc(C(F)(F)F)c2)C3)c1 [Example 2-25, 4-(4-cyano-1H-pyrazol-1-yl)-7-{[2-(trifluoromethyl)pyridin-4-yl]methyl}-5,6,7,8-tetrahydro-1,7-naphthyridine-2-carboxamide]",40.9 nM
8,"NC(=O)c1cc(-c2ccc(F)c(F)c2)c2c(n1)CN(Cc1ccnc(C(F)(F)F)c1)CC2 [Example 2-4, 4-(3,4-difluorophenyl)-7-{[2-(trifluoromethyl)pyridin-4-yl]methyl}-5,6,7,8-tetrahydro-1,7-naphthyridine-2-carboxamide]",20.4 nM
9,"COC1CCN(c2cc(C(N)=O)nc3c2CCN(Cc2ccnn2C(C)C)C3C)CC1 (single isomer, unassigned) [Example 1-22, (S) or (R)-4-(4-methoxypiperidin-1-yl)-8-methyl-7-{[1-(1-methylethyl)-1H-pyrazol-5-yl]methyl}-5,6,7,8-tetrahydro-1,7-naphthyridine-2-carboxamide]",50.6 nM
10,"Cc1ccc(-c2cc(C(N)=O)nc3c2CCN(Cc2ccnn2C(C)C)C3)c(F)c1 [Example 1-12, 4-(2-fluoro-4-methylphenyl)-7-{[1-(1-methylethyl)-1H-pyrazol-5-yl]methyl}-5,6,7,8-tetrahydro-1,7-naphthyridine-2-carboxamide]",9.9 nM
11,"NC(=O)c1cc(-c2ccc(F)cc2F)c2c(n1)CN(CC(=O)N1CCOCC1)CC2 [Example 2-17, 4-(2,4-difluorophenyl)-7-(2-morpholin-4-yl-2-oxoethyl)-5,6,7,8-tetrahydro-1,7-naphthyridine-2-carboxamide]",101 nM
12,"NC(=O)c1cc(-c2ccc(Cl)cn2)c2c(n1)CN(Cc1ccnc(C(F)(F)F)c1)CC2 [Example 6-1, 4-(5-chloropyridin-2-yl)-7-((2-(trifluoromethyl)pyridin-4-yl)methyl)-5,6,7,8-tetrahydro-1,7-naphthyridine-2-carboxamide]",11.7 nM
13,"NC(=O)c1cc(-c2cc(C3CC3)ns2)c2c(n1)CN(Cc1ccnc(C3CC3)c1)CC2 [Example 2-24, 4-(3-cyclopropylisothiazol-5-yl)-7-[(2-cyclopropylpyridin-4-yl)methyl]-5,6,7,8-tetrahydro-1,7-naphthyridine-2-carboxamide]",18.2 nM
14,"NC(=O)c1cc(-c2ccc(F)cc2)c2c(n1)CN(C[C@H]1CCN[C@@H](C(F)(F)F)C1)CC2 [Example 1-1A, 4-(4-fluorophenyl)-7-(((2R,4S)-2-(trifluoromethyl)piperidin-4-yl)methyl)-5,6,7,8-tetrahydro-1,7-naphthyridine-2-carboxamide]",98.2 nM
15,"NC(=O)c1cc(N2CCCC(F)C2)c2c(n1)CN(Cc1ccnc(C(F)(F)F)c1)CC2 (single isomer, unassigned) [Example 5-6A, (S) or (R)-4-(3-fluoropiperidin-1-yl)-7-((2-(trifluoromethyl)pyridin-4-yl)methyl)-5,6,7,8-tetrahydro-1,7-naphthyridine-2-carboxamide]",21.4 nM
16,"CC1(C)CCC(CN2CCc3c(-c4ccc(F)cc4F)cc(C(N)=O)nc3C2)CO1 (single isomer, unassigned) [Example 1-20, (S) or (R)-4-(2,4-difluorophenyl)-7-[(6,6-dimethyltetrahydro-2H-pyran-3-yl)methyl]-5,6,7,8-tetrahydro-1,7-naphthyridine-2-carboxamide]",24.4 nM

row,Structure (SMILES),IC50
1,"CC1(C)CC(CN2CCc3c(-c4ccc(F)cc4F)cc(C(N)=O)nc3C2(C)C)CCO1 (racemic) [Example 1-23B, (R) and (S)-4-(2,4-difluorophenyl)-7-((2,2-dimethyltetrahydro-2H-pyran-4-yl)methyl)-8,8-dimethyl-5,6,7,8-tetrahydro-1,7-naphthyridine-2-carboxamide]",28.5 nM
2,"COc1ncc(CN2CCc3c(-c4ccc(Cl)cc4F)cc(C(N)=O)nc3C2)cn1 [Example 10-2, 4-(4-chloro-2-fluorophenyl)-7-[(2-methoxypyrimidin-5-yl)methyl]-5,6,7,8-tetrahydro-1,7-naphthyridine-2-carboxamide]",7.4 nM
3,"CC1(C)CC(O)(CN2CCc3c(-c4ccc(F)cc4F)cc(C(N)=O)nc3C2)CCO1 (single isomer, unassigned) [Example 14-2A]",31.7 nM
4,"CC1c2nc(C(N)=O)cc(-c3ccc(F)cc3F)c2CCN1Cc1ccnn1C(C)C (single isomer, unassigned) [Example 1-15A, (S) or (R)-4-(2,4-difluorophenyl)-8-methyl-7-{[1-(1-methylethyl)-1H-pyrazol-5-yl]methyl}-5,6,7,8-tetrahydro-1,7-naphthyridine-2-carboxamide]",5.8 nM
5,"NC(=O)c1cc(-c2ccc(F)cc2F)c2c(n1)CN(CC(O)c1ccccc1)CC2 (racemic) [Example 8-1B, (S) and (R)-4-(2,4-difluorophenyl)-7-(2-hydroxy-2-phenylethyl)-5,6,7,8-tetrahydro-1,7-naphthyridine-2-carboxamide]",12.7 nM
6,"CC1(C)CC(F)(CN2CCc3c(-c4ccc(F)cc4F)cc(C(N)=O)nc3C2)CO1 (single isomer, unassigned) [Example 14-1A]",17.4 nM
7,"NC(=O)c1cc(-c2ccc(F)cc2F)c2c(n1)CN(CC(O)c1ccccc1)CC2 (single isomer, unassigned) [Example 8-3A, (S) or (R)-4-(2,4-difluorophenyl)-7-[(2S or 2R)-2-hydroxy-2-phenylethyl]-5,6,7,8-tetrahydro-1,7-naphthyridine-2-carboxamide]",18.5 nM
8,"Cn1nccc1CN1CCc2c(-c3ccc(Cl)cc3F)cc(C(N)=O)nc2C1 [Example 1-8, 4-(4-chloro-2-fluorophenyl)-7-[(1-methyl-1H-pyrazol-5-yl)methyl]-5,6,7,8-tetrahydro-1,7-naphthyridine-2-carboxamide]",8.7 nM
9,"NC(=O)c1cc(-c2cccc(C(F)(F)F)c2)c2c(n1)CN(Cc1ccnc(C(F)(F)F)c1)CC2 [Example 2-8, 4-[3-(trifluoromethyl)phenyl]-7-{[2-(trifluoromethyl)pyridin-4-yl]methyl}-5,6,7,8-tetrahydro-1,7-naphthyridine-2-carboxamide]",188 nM
10,"Cc1cn(-c2cc(C(N)=O)nc3c2CCN(Cc2ccnc(C(F)(F)F)c2)C3)cn1 [Example 5-1, 4-(4-methyl-1H-imidazol-1-yl)-7-((2-(trifluoromethyl)pyridin-4-yl)methyl)-5,6,7,8-tetrahydro-1,7-naphthyridine-2-carboxamide]",115 nM
11,"COc1cc(C(N2CCc3c(C4=CCC(C)CC4)cc(C(N)=O)nc3C2)C(F)(F)F)ccn1 (racemic) [Example 4-3B, 4-((S) and (R)-4-methylcyclohex-1-en-1-yl)-7-((S) and (R)-2,2,2-trifluoro-1-(2-methoxypyridin-4-yl)ethyl)-5,6,7,8-tetrahydro-1,7-naphthyridine-2-carboxamide]",86.6 nM
12,"NC(=O)c1cc(-c2ccc(Cl)cc2F)c2c(n1)CN(Cc1ncon1)CC2 [Example 9-1, 7-((1,2,4-oxadiazol-3-yl)methyl)-4-(4-chloro-2-fluorophenyl)-5,6,7,8-tetrahydro-1,7-naphthyridine-2-carboxamide]",27.7 nM
13,"NC(=O)c1cc(-n2ccc(C(F)(F)F)n2)c2c(n1)CN(Cc1ccnc(C(F)(F)F)c1)CC2 [Example 2-19, 4-[3-(trifluoromethyl)-1H-pyrazol-1-yl]-7-{[2-(trifluoromethyl)pyridin-4-yl]methyl}-5,6,7,8-tetrahydro-1,7-naphthyridine-2-carboxamide]",61.6 nM
14,"Cc1ncc(-c2cc(C(N)=O)nc3c2CCN(Cc2ccnc(OC(F)F)c2)C3)s1 [Example 6-3, 7-{[2-(difluoromethoxy)pyridin-4-yl]methyl}-4-(2-methyl-1,3-thiazol-5-yl)-5,6,7,8-tetrahydro-1,7-naphthyridine-2-carboxamide]",18.6 nM
15,"COc1cc(CN2CCc3c(-c4ccc(Cl)cc4F)cc(C(N)=O)nc3C2)ccn1 [Example 13-3, 4-(4-chloro-2-fluorophenyl)-7-[(2-methoxypyridin-4-yl)methyl]-5,6,7,8-tetrahydro-1,7-naphthyridine-2-carboxamide]",16 nM
16,"Cc1ncc(-c2cc(C(N)=O)nc3c2CCN(Cc2ccnn2C)C3)s1 [Example 6-4, 7-[(1-methyl-1H-pyrazol-5-yl)methyl]-4-(2-methyl-1,3-thiazol-5-yl)-5,6,7,8-tetrahydro-1,7-naphthyridine-2-carboxamide]",119 nM
